Data taken from the supplement of paper PMC10307832.

How the values were obtained:
Experiment in all cases: relative viability (nuclei count vs DMSO), 5 days (fraction); higher = more cells survive
NCI-H1355 = system: NCI-H1355
How it was run: (§1)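 Relative viability was taken as the ratio of nuclei in treated wells to nuclei in vehicle wells. Lung cancer cell lines in 1536-well plates received compounds by pin tool one day after seeding, either one drug alone or a fixed anchor-drug dose plus five library-drug doses (not always all listed) in √10 steps. Nuclei were counted on 4× images after 5 days of treatment, and values are medians of duplicate plates.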

NCI-H520 = system: NCI-H520
How it was run: as §1

CAL-12T = system: CAL-12T
How it was run: as §1

NCI-H1944 = system: NCI-H1944
How it was run: as §1

NCI-H322M = system: NCI-H322M
How it was run: as §1

NCI-H661 = system: NCI-H661
How it was run: as §1

LC-2-ad = system: LC-2-ad
How it was run: as §1

NCI-H1651 = system: NCI-H1651
How it was run: as §1

NCI-H838 = system: NCI-H838
How it was run: as §1

NCI-H1666 = system: NCI-H1666
How it was run: as §1

201T = system: 201T
How it was run: as §1

NCI-H2228 = details: first compound 0.2 µM
How it was run: as §1

COCC1(CO)C(=O)C2CCN1CC2 (centres undefined) [PRIMA-1MET] + N=C(N)NC(=N)NCCc1ccccc1 [Phenformin] (partner 250 µM)
relative viability (NCI-H1355; first compound 0.2 µM): 0.443
relative viability (NCI-H1355; first compound 0.6325 µM): 0.409
relative viability (NCI-H1355; first compound 2 µM): 0.384
relative viability (NCI-H1355; first compound 6.325 µM): 0.46
relative viability (NCI-H1355; first compound 20 µM): 0.421
relative viability (NCI-H520; first compound 0.2 µM): 0.605
relative viability (NCI-H520; first compound 0.6325 µM): 0.501
relative viability (NCI-H520; first compound 2 µM): 0.314
relative viability (NCI-H520; first compound 6.325 µM): 0.289
relative viability (NCI-H520; first compound 20 µM): 0.155
relative viability (CAL-12T; first compound 0.2 µM): 0.52
relative viability (CAL-12T; first compound 0.6325 µM): 0.592
relative viability (CAL-12T; first compound 2 µM): 0.586
relative viability (CAL-12T; first compound 6.325 µM): 0.519
relative viability (CAL-12T; first compound 20 µM): 0.0696
relative viability (NCI-H1944; first compound 0.2 µM): 0.215
relative viability (NCI-H1944; first compound 0.6325 µM): 0.189
relative viability (NCI-H1944; first compound 2 µM): 0.155
relative viability (NCI-H1944; first compound 6.325 µM): 0.201
relative viability (NCI-H1944; first compound 20 µM): 0.214
relative viability (NCI-H322M; first compound 0.2 µM): 0.869
relative viability (NCI-H322M; first compound 0.6325 µM): 0.549
relative viability (NCI-H322M; first compound 6.325 µM): 0.804
relative viability (NCI-H322M; first compound 20 µM): 0.0578
relative viability (NCI-H661; first compound 0.2 µM): 0.304
relative viability (NCI-H661; first compound 0.6325 µM): 0.261
relative viability (NCI-H661; first compound 2 µM): 0.274
relative viability (NCI-H661; first compound 6.325 µM): 0.288
relative viability (NCI-H661; first compound 20 µM): 0.292
relative viability (LC-2-ad; first compound 0.2 µM): 0.548
relative viability (LC-2-ad; first compound 2 µM): 0.49
relative viability (LC-2-ad; first compound 6.325 µM): 0.568
relative viability (LC-2-ad; first compound 20 µM): 0.36
relative viability (NCI-H1651; first compound 0.2 µM): 0.297
relative viability (NCI-H1651; first compound 0.6325 µM): 0.244
relative viability (NCI-H1651; first compound 2 µM): 0.293
relative viability (NCI-H1651; first compound 6.325 µM): 0.377
relative viability (NCI-H1651; first compound 20 µM): 0.339
relative viability (NCI-H838; first compound 0.2 µM): 0.574
relative viability (NCI-H838; first compound 0.6325 µM): 0.535
relative viability (NCI-H838; first compound 2 µM): 0.451
relative viability (NCI-H838; first compound 6.325 µM): 0.712
relative viability (NCI-H838; first compound 20 µM): 0.0931
relative viability (NCI-H1666; first compound 0.2 µM): 0.558
relative viability (NCI-H1666; first compound 0.6325 µM): 0.548
relative viability (NCI-H1666; first compound 2 µM): 0.555
relative viability (NCI-H1666; first compound 6.325 µM): 0.634
relative viability (NCI-H1666; first compound 20 µM): 0.564
relative viability (201T; first compound 0.2 µM): 0.444
relative viability (201T; first compound 0.6325 µM): 0.452
relative viability (201T; first compound 2 µM): 0.397
relative viability (201T; first compound 6.325 µM): 0.452
relative viability (201T; first compound 20 µM): 0.464
relative viability (NCI-H2228): 0.41
